Among the data in PubChem BioAssay (NCI) are TGI and GI50 values, retold here.

Several values for one entry are separate records, joined by “and”; a condition that tells them apart may be missing. Equal entries are not always repeated.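 Five compound concentrations were applied to cells in 96-well plates for 48 hours; endpoints were derived by simple linear interpolation of the resulting dose-response curve. GI50 = concentration required for 50% inhibition of growth. At the TGI there is no net growth.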

Holding throughout (assay): DTP human tumour cell line panel, 48 h
Assay [1] has as its system 786-0 renal.
Assay [2] relates to A498 renal.
The subject of assay [3] is CCRF-CEM leukemia.
Assay [4] concerns K-562 leukemia.
The test system of assay [5] is NCI-H23 lung.
For assay [6], the system named is SK-MEL-2 melanoma.
Assay [7] has as its system SK-OV-3 ovarian.
The test system of assay [8] is SN12C renal.
The subject of assay [9] is TK-10 renal.
Assay [10] has as its system UACC-257 melanoma.

Consider `Cc1cc(C)nc(NS(=O)(=O)c2ccc(NC(=O)c3cccc4c(N)c5ccccc5nc34)cc2)n1`, for which the TGI in assay [1], in assay [2], in assay [3], in assay [4], in assay [5] and in assay [6] was above 100 µM throughout. Also, the total growth inhibition concentration (TGI) in assay [7], in assay [8], in assay [9] and in assay [10] was above 100 µM each time.
In the case of `CC1(C)N=C(Oc2ccccc2)n2nccc2N1`, the total growth inhibition concentration (TGI) in assay [1], in assay [2], in assay [3], in [4], in [5] and in [6] was above 100 µM throughout. In addition, the concentration for total growth inhibition (TGI) in assay [7], in assay [8], in [9] and in assay [10] was above 100 µM each time.
In the case of `Cc1ccc(F)c2c(=O)cc(-c3ccccc3)[nH]c12`, the TGI in [1], in assay [3], in assay [4], in [5], in [6] and in assay [7] was above 100 µM throughout. Further, the concentration for total growth inhibition (TGI) in assay [8], in assay [9] and in assay [10] was above 100 µM each time.
Regarding `CC#Cc1c(C#CC)c(OC)c2c(c1OC)C(=O)c1ccccc1C2=O`, the concentration for total growth inhibition (TGI) in assay [1], in assay [2], in assay [3], in assay [4], in assay [5] and in [6] was above 100 µM in each case. For the same compound, the TGI in assay [7], in assay [8], in [9] and in [10] was above 100 µM each time.
As for `O=C(Nc1ccc(S(=O)(=O)Nc2ncccn2)cc1)c1c2ccccc2nc2ccccc12`, the total growth inhibition concentration (TGI) in assay [1], in [2], in assay [4], in [5], in [6] and in assay [7] was above 100 µM throughout. In addition, the TGI in assay [8], in assay [9] and in [10] was above 100 µM throughout.
Regarding `CC(Nc1n[nH]c(=O)c2c1nnn2Cc1ccccc1)c1ccccc1` (configuration not stated), the concentration for total growth inhibition (TGI) (in general, the concentration at which net growth stops) in assay [1] was 30.1 µM; in [3], above 100 µM; in assay [4], above 100 µM; in [5], above 100 µM; in assay [6], above 100 µM; in assay [8], above 100 µM. Besides, the total growth inhibition concentration (TGI) in assay [9] is > 100 µM and 64.7 µM; in assay [10] it was above 100 µM. For the same compound, the GI50 (commonly the concentration giving 50% growth inhibition) in [4] is > 100 µM and 22.8 µM; in [5] it was > 100 µM and 43.8 µM; in assay [6], > 100 µM and 41.5 µM; in assay [9], 89.3 µM and 23.4 µM.
For `CCCOP(=S)(N1CC1)N1CC1`, the TGI in assay [1], in assay [2], in [3], in [4], in [5] and in assay [6] was above 100 µM throughout. Moreover, the TGI was above 100 µM in assay [7], above 100 µM in assay [8], above 100 µM in assay [9] and 46.5 µM in [10].
For `COc1nc(OC)nc(Sc2ccc(Sc3ccc(Sc4nc(OC)nc(OC)n4)cc3)cc2)n1`, the TGI in assay [1], in assay [2], in assay [3], in assay [4], in assay [5] and in assay [6] was above 100 µM throughout. The TGI in assay [7], in assay [8], in assay [9] and in [10] was above 100 µM in each case.
For `CC(=O)O/N=C/c1cc2c(cc1Br)OCO2`, the TGI in [1], in [3], in assay [4], in assay [5], in assay [6] and in assay [7] was above 349 µM each time. Moreover, the TGI in [8], in assay [9] and in [10] was above 349 µM each time.
As for `O=C1c2ccccc2C(=O)c2c(O)c(NCCNCCO)cc(O)c21`, the concentration for total growth inhibition (TGI) was 14.1 µM in assay [1]; 21 µM in assay [2]; 13.2 µM in assay [3]; 10.4 µM in [4]; 16.7 µM in assay [5]; 15.8 µM in [6]. For the same compound, the concentration for total growth inhibition (TGI) in assay [8] amounted to 14.9 µM; in assay [9] it was 17.7 µM; in assay [10], 19.6 µM.
As for `COc1ccc(/C=C(\Cl)c2ccc(OC)cc2)cc1`, the TGI in assay [1], in [2], in [3], in [4], in assay [5] and in [7] was above 100 µM in each case. The TGI in assay [8], in assay [9] and in [10] was above 100 µM each time.
